# Measurements reported in BindingDB's records for doi:10.1016/j.bmcl.2017.04.030 (Takeda Pharmaceutical, 2017).
# Numbered stars: 1 amine (or outer) side, 2 acyl side, 3 side chain; on linkers, the order of the positions; unused ones are H or OH. Bridge positions count the residues as written; N and C are the ends. Square brackets hold non-standard residues; d marks the D form. Peptide text beside a SMILES is read from it. tBuAla = CC(C)(C)C[C@H](N)C(=O)O; X1 = O=C(CCC[*:2])[*:1]
# Target: T1, Oxytocin receptor (Homo sapiens, UniProt P30559)
# T1 sequence (P30559 whole entry): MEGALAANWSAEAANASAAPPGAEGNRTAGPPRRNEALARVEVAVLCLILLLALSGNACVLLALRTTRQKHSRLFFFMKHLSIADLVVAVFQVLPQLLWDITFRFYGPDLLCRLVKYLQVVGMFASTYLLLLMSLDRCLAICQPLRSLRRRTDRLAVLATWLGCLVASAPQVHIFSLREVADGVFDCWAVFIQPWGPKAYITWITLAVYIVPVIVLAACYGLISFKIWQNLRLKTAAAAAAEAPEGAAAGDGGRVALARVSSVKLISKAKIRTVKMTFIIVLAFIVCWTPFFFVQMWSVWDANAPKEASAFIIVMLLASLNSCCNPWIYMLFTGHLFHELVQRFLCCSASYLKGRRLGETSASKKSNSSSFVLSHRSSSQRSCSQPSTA
# Test: Agonist activity at human OTR expressed in CHO cells assessed as calcium mobilization measured after 30 mins by Fluo-4-AM dye based FLIPR assay
row,EC50,Compound
1,8 pM,CC[C@H](C)[C@@H]1NC(=O)[C@H](Cc2ccc(O)cc2)NC(=O)CCSSC[C@@H](C(=O)N2CCC[C@H]2C(=O)N[C@@H](CC(C)C)C(=O)NNC(N)=O)NC(=O)[C@H](CC(N)=O)NC(=O)[C@H](CCC(N)=O)NC1=O
2,7 pM,CC[C@H](C)[C@@H]1NC(=O)[C@H](Cc2ccc(O)cc2)NC(=O)CCCSC[C@@H](C(=O)N2CCC[C@H]2C(=O)N[C@@H](CC(C)(C)C)C(=O)NCC(N)=O)NC(=O)[C@H](CC(N)=O)NC(=O)[C@H](CCC(N)=O)NC1=O (YIQNCP[tBuAla]G-NH2; linker N-5 via X1)
